The subject of series [1] is Rattus norvegicus. Nature of the series: Anticonvulsant activity in rat assessed as protection against kainic acid-induced convulsions at 10 mg/kg, ip. The format is functional, organism-based. Further details: dose 10 mg/kg.
Series [2] deals with Rattus norvegicus. Nature of the series: Neuroprotective activity in kainic acid-induced rat assessed as decrease in hippocampal neuronal loss at 10 mg/kg, ip. The format is functional, organism-based. Further details: dose 10 mg/kg.
Series [3] has as its system Rattus norvegicus. Nature of the series: Anticonvulsant activity in rat assessed as protection against kainic acid-induced seizures in denate gyrus at 10 mg/kg, ip. Set-up: dose 10 mg/kg. The class given is functional, organism-based.
The test system of series [4] is Rattus norvegicus. Nature of the series: Reduction in IL-1beta in kainic acid-induced rat brain at 10 mg/kg, ip. The class given is functional, organism-based. Set-up: dose 10 mg/kg.
The subject of series [5] is Rattus norvegicus. Put plainly: Decrease in astrocyte reactivity in kainic acid-induced rat brain inCA3 region at 10 mg/kg, ip by GFAP staining. The class given is functional, organism-based. Further details: dose 10 mg/kg.
Series [6] deals with Rattus norvegicus. Put plainly: Reduction in degeneration pattern in kainic acid-induced rat brain inCA3 region at 10 mg/kg, ip by GFAP staining. Set-up: dose 10 mg/kg. The format is functional, organism-based.
For series [7], the system named is Rattus norvegicus. Nature of the series: Anticonvulsant activity in rat assessed as protection against kainic acid-induced death at 10 mg/kg, ip. The class given is functional, organism-based. Set-up: dose 10 mg/kg.
Series [8] concerns Rattus norvegicus. Put plainly: Reduction in TNFalpha in kainic acid-induced rat brain at 10 mg/kg, ip. The format is functional, organism-based. Set-up: dose 10 mg/kg.
Series [9] deals with Rattus norvegicus. Nature of the series: Toxicity in rat assessed as convulsions at 10 to 80 mg/kg, ip. The class given is organism-based. Set-up: dose 10-80 mg/kg, route intraperitoneal. The note with it: in vivo.
Series [10] has as its system Rattus norvegicus. Put plainly: Toxicity in rat assessed as seizures at 10 to 80 mg/kg, ip. Set-up: dose 10-80 mg/kg, route intraperitoneal. The note with it: in vivo. The format is organism-based.
Series [11] deals with Rattus norvegicus. Put plainly: Toxicity in rat assessed as hippocampal damage at 10 to 80 mg/kg, ip. The class given is organism-based, Hippocampus. As to conditions: in vivo. Further details: dose 10-80 mg/kg, route intraperitoneal.

Active and inactive are the calls of the source. The calls are words filed in the database; no cut-off is given here.

Turning to `CCCCC[C@H]1CCCCCCCCCC(=O)O[C@@H]2[C@@H](O[C@@H]3O[C@H](C)[C@@H](OC(=O)[C@@H](C)CC)[C@H](O)[C@H]3O)[C@H](C)O[C@@H](O[C@H]3[C@H](O[C@H]4[C@H](O1)O[C@H](C)[C@@H](O)[C@@H]4O)O[C@H](COC(=O)[C@H](C)[C@@H](C)O)[C@@H](O)[C@@H]3O)[C@@H]2OC(=O)[C@@H](C)CC` [ORIZABIN XX], the inhibition result with Rattus norvegicus [1] is “Active”. Also, the outcome in the series on Rattus norvegicus [2], in the series with Rattus norvegicus [3], in the series on Rattus norvegicus [4], in the series with Rattus norvegicus [5], with Rattus norvegicus [6] and with Rattus norvegicus [7] was Active. Further, the result in the series on Rattus norvegicus [8] was Active. For the same compound, the Activity entry with Rattus norvegicus [9], in the series on Rattus norvegicus [10] and with Rattus norvegicus [11] was “Non-toxic” each time.

The values are drawn from ChEMBL document CHEMBL3352025, “Evaluation of the neuroprotective activity of stansin 6, a resin glycoside from Ipomoea stans” (Bioorg Med Chem Lett, 2014).
